Laboratory results: patent publication US8889878B2, “Haloalky-substituted amides as insecticides and acaricides” (Bayer CropScience AG, priority 2009, dated 2014)

How the values were obtained:
[1] = logP by HPLC on reverse-phase column (EEC Directive 79/831 Annex V.A8); type: physicochemical
Method: The logP values reported in the above Tables and Preparation Examples were determined according to EEC Directive 79/831 Annex V.A8 by HPLC (High Performance Liquid Chromatography) on a reverse-phase column (C18). Temperature 43° C.

[2] = test system: green peach aphid (Myzus persicae); experiment: Myzus test (MYZUPE spray treatment), Example 17; type: in vivo; conditions: china cabbage leaf discs sprayed, after 6 days
Method: Myzus Test (MYZUPE Spray Treatment)
• Solvent: 78 parts by weight of acetone • 1.5 parts by weight of dimethylformamide • Emulsifier: 0.5 part by weight of alkylaryl polyglycol ether
To prepare an appropriate active ingredient formulation, 1 part by weight of active ingredient is mixed with the stated amounts of solvent and emulsifier, and the concentrate is diluted with emulsifier-containing water to the desired concentration. Leaf discs from china cabbage (Brassica pekinensis) infested by all stages of the green peach aphid (Myzus persicae) are sprayed with an active ingredient formulation of the desired concentration.
After 6 days, the efficacy in % is determined. 100% means that all aphids were killed; 0% means that no aphids were killed.

[3] = test system: armyworm (Spodoptera frugiperda); experiment: Spodoptera frugiperda test (SPODFR spray treatment), Example 15; type: in vivo; conditions: maize leaf discs sprayed, after 7 days
In short: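 Maize leaf discs sprayed with active ingredient in acetone/DMF with alkylaryl polyglycol ether emulsifier, diluted in water, then populated with caterpillars after drying. Efficacy in % after 7 days: 100% all caterpillars killed, 0% none.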

[4] = test system: mustard beetle (Phaedon cochleariae); experiment: Phaedon test (PHAECO spray treatment), Example 7; type: in vivo; conditions: application rate 20 g/ha, china cabbage leaf discs sprayed, after 7 days
Method: Phaedon Test (PHAECO Spray Treatment)
• Solvent: 78.0 parts by weight of acetone • 1.5 parts by weight of dimethylformamide • Emulsifier: 0.5 part by weight of alkylaryl polyglycol ether
To prepare an active ingredient formulation, 1 part by weight of active ingredient is mixed with the stated amounts of solvent and emulsifier, and the concentrate is diluted with emulsifier-containing water to the desired concentration. Leaf discs from china cabbage (Brassica pekinensis) are sprayed with an active ingredient formulation of the desired concentration and, after drying, populated with larvae of the mustard beetle (Phaedon cochleariae).
After 7 days, the efficacy in % is determined. 100% means that all beetle larvae were killed; 0% means that no beetle larvae were killed.

Boophilus microplus = Boophilus microplus test (BOOPMI injection), Example 11; type: in vivo; conditions: application rate 20 μg/animal, injected into abdomen, after 7 days
Method: Boophilus microplus Test (BOOPMI Injection) • Solvent: dimethyl sulphoxide To prepare an appropriate active ingredient formulation, 10 mg of active ingredient are mixed with 0.5 ml of solvent and the concentrate is diluted with solvent to the desired concentration. The active ingredient solution is injected into the abdomen (Boophilus microplus), and the animals are transferred to dishes and stored in a climate-controlled room. The efficacy was assessed by the number of fertile eggs laid. After 7 days, the efficacy in % is determined. 100% means that none of the ticks has laid any fertile eggs.

[5] = HPLC-MS, HPLC on reverse-phase column
[6] = HPLC, C18 reverse phase, 43° C., acidic range pH 2.7, calibration with alkan-2-ones

Row | Structure (SMILES) | logP ([1]; HPLC-MS) | efficacy in % ([2]; application rate 100 g/ha) [%] | efficacy in % ([3]; application rate 100 g/ha) [%] | other results
1 | CC(NC(=O)c1ccc(C=CC(=O)NC(c2cccc(C(F)(F)F)c2)C(F)(F)F)cc1Cl)c1nccs1 (mixture of isomers) [Ia-187] | HPLC-MS: logP = 3.4; mass | 80 |  | 
2 | CC(C)ONC(=O)c1ccc(/C=C/C(=O)NC(c2cccc(C(F)(F)F)c2)C(F)(F)F)cc1Cl (racemic) [Ia-194] | HPLC-MS: logP = 3.29; mass | 90 |  | 
3 | CC(C)(C#N)NC(=O)c1ccc(/C=C/C(=O)NC(c2cccc(C(F)(F)F)c2)C(F)(F)F)cc1Cl (racemic) [Ia-195] | HPLC-MS: logP = 3.34; mass | 100 | 100 | 
4 | O=C(/C=C/c1ccc(C(=O)Nc2ncccn2)c(Cl)c1)NC(c1cccc(C(F)(F)F)c1)C(F)(F)F (racemic) [Ia-197] | HPLC-MS: logP = 2.95; mass | 90 |  | 
5 | CCn1c(C(=O)NC(c2cccc(C(F)(F)F)c2)C(F)(F)F)cc2cc(C(=O)NC3CC3)c(Cl)cc21 (racemic) [Ic-26] |  | 100 | 100 | 
6 | CCNC(=O)c1ccc(/C=C/C(=O)NC(c2cccc(C(F)(F)F)c2)C(F)(F)F)cc1C(F)(F)F (centres unmarked) [Ia-64] | HPLC-MS: logP = 3.18; mass |  |  | efficacy in % [4]: 100%; efficacy in % ([3]; application rate 500 g/ha): 83%
7 | CC(F)(F)CNC(=O)c1ccc(/C=C/C(=O)NC(c2cccc(C(F)(F)F)c2)C(F)(F)F)cc1Cl (centres unmarked) [Ia-111] | HPLC-MS: logP = 3.37 mass |  |  | efficacy in % [4]: 100%
8 | CN(C)NC(=O)c1ccc(/C=C/C(=O)NC(c2cccc(C(F)(F)F)c2)C(F)(F)F)cc1C(F)(F)F (centres unmarked) [Ia-131] | HPLC-MS: logP = 3.05; mass | 100 | 100 | 
9 | COC(=O)C(C)NC(=O)c1ccc(/C=C/C(=O)NC(c2cccc(C(F)(F)F)c2)C(F)(F)F)cc1C(F)(F)F (centres unmarked) [Ia-132] | HPLC-MS: logP = 3.47; mass | 80 |  | efficacy in % (fertile eggs laid) (Boophilus microplus): 100%
10 | O=C(/C=C/c1ccc(C(=O)NC2CCOC2=O)c(C(F)(F)F)c1)NC(c1cccc(C(F)(F)F)c1)C(F)(F)F (centres unmarked) [Ia-136] |  | 100 |  | efficacy in % (fertile eggs laid) (Boophilus microplus): 100%
11 | CC(C#N)NC(=O)c1ccc(/C=C/C(=O)NC(c2cccc(C(F)(F)F)c2)C(F)(F)F)cc1Cl (centres unmarked) [Ia-160] | HPLC-MS: logP = 3.23; mass | 100 |  | 
12 | O=C(/C=C/c1ccc(C(=O)Nc2ccc(Cl)cn2)c(Cl)c1)NC(c1cccc(C(F)(F)F)c1)C(F)(F)F (centres unmarked) [Ia-168] | HPLC-MS: logP = 4.28; mass | 80 | 100 | 
13 | O=C(/C=C/c1ccc(C(=O)NCc2ccco2)c(C(F)(F)F)c1)NC(c1cccc(C(F)(F)F)c1)C(F)(F)F (centres unmarked) [Ia-169] | HPLC-MS: logP = 3.63; mass | 100 |  | 
14 | COC(=O)N(C)NC(=O)c1ccc(/C=C/C(=O)NC(c2cccc(C(F)(F)F)c2)C(F)(F)F)cc1C(F)(F)F (centres unmarked) [Ia-170] | HPLC-MS: logP = 3.23; mass | 100 | 83 | 
15 | CC(C)NC(=O)c1ccc(/C=C/C(=O)NC(c2cccc(C(F)(F)F)c2)C(F)(F)F)cc1Br (centres unmarked) [Ia-174] | HPLC-MS: logP = 3.48; mass | 100 |  | 
16 | O=C(/C=C/c1ccc(C(=O)NC(CF)CF)c(Br)c1)NC(c1cccc(C(F)(F)F)c1)C(F)(F)F (centres unmarked) [Ia-175] | HPLC-MS: logP = 3.35; mass | 100 | 83 | 
17 | O=C(/C=C/c1ccc(C(=O)NC2CCC2)c(Br)c1)NC(c1cccc(C(F)(F)F)c1)C(F)(F)F (centres unmarked) [Ia-179] | HPLC-MS: logP = 3.61; mass | 90 | 83 | 

Row | Structure (SMILES) | logP ([1]; HPLC-MS) | efficacy in % ([2]; application rate 100 g/ha) [%] | efficacy in % ([3]; application rate 100 g/ha) [%] | other results
18 | O=C(/C=C/c1ccc(C(=O)NCC2CC2)c(Br)c1)NC(c1cccc(C(F)(F)F)c1)C(F)(F)F (centres unmarked) [Ia-180] | HPLC-MS: logP = 3.55; mass | 90 |  | 
19 | O=C(/C=C/c1ccc(C(=O)Nc2ccncn2)c(Cl)c1)NC(c1cccc(C(F)(F)F)c1)C(F)(F)F (centres unmarked) [Ia-184] | HPLC-MS: logP = 3.22; mass | 100 |  | 
20 | CN(C(=O)c1ccc(/C=C/C(=O)NC(c2cccc(C(F)(F)F)c2)C(F)(F)F)cc1C(F)(F)F)c1ccccn1 (centres unmarked) [Ia-239] | HPLC-MS: logP = 2.07; mass | 90 | 100 | 
21 | CCC(=O)NCc1ccc(/C=C/C(=O)NC(c2ccc(F)c(Cl)c2)C(F)(F)F)cc1C(F)(F)F (centres unmarked) [Ia-251] | HPLC-MS: logP = 3.47; mass | 80 | 100 | 
22 | CC(=O)N(Cc1ccccn1)Cc1ccc(/C=C/C(=O)NC(c2cccc(C(F)(F)F)c2)C(F)(F)F)cc1F (centres unmarked) [Ia-252] | HPLC-MS: logP = 2.72; mass | 100 | 100 | 
23 | CC(=O)N(Cc1ccc(/C=C/C(=O)NC(c2cccc(C(F)(F)F)c2)C(F)(F)F)cc1)Cc1ccccn1 (centres unmarked) [Ia-254] | HPLC-MS: logP = 2.65; mass | 80 |  | 
24 | O=C(/C=C/c1ccc(C(=O)NC2CC2)c(C(F)(F)F)c1)NC(c1cccc(SC(F)(F)F)c1)C(F)(F)F (centres unmarked) [Ia-256] | HPLC-MS: logP = 3.51; mass | 100 | 100 | 
25 | CCC(=O)NCc1ccc(/C=C/C(=O)NC(c2cccc(C(F)(F)F)c2)C(F)(F)F)cc1F (centres unmarked) [Ia-276] |  | 100 | 100 | logP [1, 5]: HPLC-MS: logP = 3.12; mass
26 | CCC(=O)NCc1ccc(/C=C/C(=O)NC(c2ccc(F)c(Cl)c2)C(F)(F)F)cc1F (centres unmarked) [Ia-277] |  | 100 | 100 | logP [1, 5]: HPLC-MS: logP = 3.06; mass
27 | O=C(/C=C/c1ccc(C(=O)NC2CC2)c(C(F)(F)F)c1)NC(c1ccc(F)c(Cl)c1)C(F)(F)F (centres unmarked) [Ia-279] |  | 100 | 100 | logP [1, 5]: HPLC-MS: logP = 3.33; mass
28 | O=C(/C=C/c1ccc(C(=O)NC2CC2)c(C(F)(F)F)c1)NC(c1ccc(F)c(C(F)(F)F)c1)C(F)(F)F (centres unmarked) [Ia-280] |  | 100 | 100 | logP [1, 5]: HPLC-MS: logP = 3.46; mass
29 | CCC(=O)NCc1ccc(/C=C/C(=O)NC(c2ccc(F)c(C(F)(F)F)c2)C(F)(F)F)cc1 (centres unmarked) [Ia-282] |  | 90 | 100 | logP [1, 5]: HPLC-MS: logP = 3.11; mass
30 | O=C(NCc1ccc2oc(C(=O)NC(c3cccc(C(F)(F)F)c3)C(F)(F)F)cc2c1)c1ccccn1 (centres unmarked) [Ic-12] |  |  |  | logP [1, 6]: HPLC-MS: logP = 3.62; mass; efficacy in % ([2]; application rate 500 g/ha): 80%
31 | O=C(NC(c1cc(Cl)cc(C(F)(F)F)c1)C(F)(F)F)c1cc2cc(Cl)c(C(=O)NC3CC3)cc2[nH]1 (centres unmarked) [Ic-20] |  |  |  | efficacy in % [4]: 100%; logP [1, 6]: HPLC-MS: logP = 3.47; mass
32 | O=C(NC(c1ccc(Cl)c(Cl)c1)C(F)(F)F)c1cc2cc(Cl)c(C(=O)NC3CC3)cc2[nH]1 (centres unmarked) [Ic-21] |  |  |  | efficacy in % [4]: 100%; logP [1, 6]: HPLC-MS: logP = 3.28; mass
33 | C/C(=C\C(=O)NC(c1cccc(C(F)(F)F)c1)C(F)(F)F)c1ccc(C(=O)NC(C)C)c(C(F)(F)F)c1 (centres unmarked) [Id-4] |  | 90 |  | logP [1, 6]: HPLC-MS: logP = 3.75; mass
